Among the data in ChEMBL document CHEMBL4627355, “Chemical reactivity and uses of 1-phenyl-3-methyl-5-pyrazolone (PMP), also known as edaravone” (Bioorg Med Chem, 2020) are IC50 values, retold here.

Experiment [1] in a line: Inhibition of lipid peroxidation. The experiment is classed as functional.
Experiment [2] is described as follows: Antioxidant activity assessed as copper-chelating scavenging activity. The experiment is classed as functional.

As a reminder, the IC50 is the midpoint of a concentration-inhibition curve.

For `O=C1CC(c2ccccc2)=NN1c1ccccc1`, the concentration for half-maximal inhibition (IC50) in experiment [1] worked out at 3.5 µM; in experiment [2] it was 3 µM.
Consider `CC1=NN(c2ccccc2)C(=O)C1` [EDARAVONE], for which the values for the IC50 in experiment [1] and in experiment [2] were 4.5 µM and 9 µM, respectively.
